According to patent US6525001B1, “Substituted pyrimidine and pyridine herbicides” (Mid-American Commercialization Corporation, priority 1997, dated 2003):

Experiments:
Experiment in all cases: Test B pre-/postemergence
Type in all cases: in vivo
Parameters in all cases: key: 0 is no effect; 10 is complete control
[1] = test system: bedstraw (Galium aparine)
Procedure, shortened: (§1)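 Response scores run from 0, meaning no effect, to 10, meaning complete control, assigned by eye relative to controls twelve to sixteen days after spraying. Treatment was both preemergence on planted seed and postemergence on plants at the 1- to 4-leaf stage.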

[2] = test system: blackgrass (Alopecurus myosuroides)
Procedure, shortened: as §1

[3] = test system: broadleaf signalgrass (Brachiaria decumbens)
Procedure, shortened: as §1

[4] = test system: cocklebur (Xanthium strumarium)
Procedure, shortened: as §1

corn (Zea mays) = test system: corn (Zea mays)
Procedure, shortened: as §1

[5] = test system: crabgrass (Digitaria sanguinalis)
Procedure, shortened: as §1

[6] = test system: giant foxtail (Setaria faberii)
Procedure, shortened: as §1

[7] = test system: momingglory (Ipomoea hederacea)
Procedure, shortened: as §1

[8] = test system: pigweed (Amaranthus retroflexus)
Procedure, shortened: as §1

rape (Brassica napus) = test system: rape (Brassica napus)
Procedure, shortened: as §1

soybean (Glycine max) = test system: soybean (Glycine max)
Procedure, shortened: as §1

[9] = test system: sugar beet (Beta vulgaris)
Procedure, shortened: as §1

[10] = test system: velvetleaf (Abutilon theophrasti)
Procedure, shortened: as §1

[11] = test system: wheat (Triticum aestivum)
Procedure, shortened: as §1

Cc1cnc(-c2ccc(OC(F)(F)F)cc2)nc1Cc1cccc(C(F)(F)F)c1 [Compound 16]
Plant response rating, Bedstraw ([1]; Rate 62 g/ha, Postemergence): 3
Bedstraw plant response rating ([1]; Rate 62 g/ha, Preemergence): 0
Plant response rating, Bedstraw ([1]; Rate 125 g/ha, Postemergence): 4
Bedstraw plant response rating ([1]; Rate 125 g/ha, Preemergence): 0
Plant response rating, Bedstraw ([1]; Rate 250 g/ha, Postemergence): 4
Plant response rating, Bedstraw ([1]; Rate 250 g/ha, Preemergence): 0
Plant response rating, Bedstraw ([1]; Rate 500 g/ha, Postemergence): 5
Plant response rating, Bedstraw ([1]; Rate 500 g/ha, Preemergence): 1
Plant response rating, Blackgrass ([2]; Rate 62 g/ha, Postemergence): 1
Blackgrass plant response rating ([2]; Rate 62 g/ha, Preemergence): 0
Plant response rating, Blackgrass ([2]; Rate 125 g/ha, Postemergence): 1
Blackgrass plant response rating ([2]; Rate 125 g/ha, Preemergence): 0
Plant response rating, Blackgrass ([2]; Rate 250 g/ha, Postemergence): 2
Plant response rating, Blackgrass ([2]; Rate 250 g/ha, Preemergence): 2
Plant response rating, Blackgrass ([2]; Rate 500 g/ha, Postemergence): 3
Plant response rating, Blackgrass ([2]; Rate 500 g/ha, Preemergence): 4
Plant response rating, B. signalgrass ([3]; Rate 62 g/ha, Postemergence): 1
B. signalgrass plant response rating ([3]; Rate 62 g/ha, Preemergence): 0
Plant response rating, B. signalgrass ([3]; Rate 125 g/ha, Postemergence): 1
B. signalgrass plant response rating ([3]; Rate 125 g/ha, Preemergence): 2
Plant response rating, B. signalgrass ([3]; Rate 250 g/ha, Postemergence): 1
Plant response rating, B. signalgrass ([3]; Rate 250 g/ha, Preemergence): 3
Plant response rating, B. signalgrass ([3]; Rate 500 g/ha, Postemergence): 1
Plant response rating, B. signalgrass ([3]; Rate 500 g/ha, Preemergence): 7
Plant response rating, Cocklebur ([4]; Rate 62 g/ha, Postemergence): 4
Cocklebur plant response rating ([4]; Rate 62 g/ha, Preemergence): 0
Plant response rating, Cocklebur ([4]; Rate 125 g/ha, Postemergence): 4
Cocklebur plant response rating ([4]; Rate 125 g/ha, Preemergence): 0
Plant response rating, Cocklebur ([4]; Rate 250 g/ha, Postemergence): 5
Plant response rating, Cocklebur ([4]; Rate 250 g/ha, Preemergence): 0
Plant response rating, Cocklebur ([4]; Rate 500 g/ha, Postemergence): 6
Plant response rating, Cocklebur ([4]; Rate 500 g/ha, Preemergence): 0
Plant response rating, Corn (corn (Zea mays); Rate 62 g/ha, Postemergence): 1
Corn plant response rating (corn (Zea mays); Rate 62 g/ha, Preemergence): 0
Plant response rating, Corn (corn (Zea mays); Rate 125 g/ha, Postemergence): 1
Corn plant response rating (corn (Zea mays); Rate 125 g/ha, Preemergence): 0
Plant response rating, Corn (corn (Zea mays); Rate 250 g/ha, Postemergence): 1
Plant response rating, Corn (corn (Zea mays); Rate 250 g/ha, Preemergence): 0
Plant response rating, Corn (corn (Zea mays); Rate 500 g/ha, Postemergence): 1
Plant response rating, Corn (corn (Zea mays); Rate 500 g/ha, Preemergence): 0
Plant response rating, Crabgrass ([5]; Rate 62 g/ha, Postemergence): 2
Crabgrass plant response rating ([5]; Rate 62 g/ha, Preemergence): 0
Plant response rating, Crabgrass ([5]; Rate 125 g/ha, Postemergence): 2
Crabgrass plant response rating ([5]; Rate 125 g/ha, Preemergence): 0
Plant response rating, Crabgrass ([5]; Rate 250 g/ha, Postemergence): 2
Plant response rating, Crabgrass ([5]; Rate 250 g/ha, Preemergence): 2
Plant response rating, Crabgrass ([5]; Rate 500 g/ha, Postemergence): 7
Plant response rating, Crabgrass ([5]; Rate 500 g/ha, Preemergence): 8
Plant response rating, Giant foxtail ([6]; Rate 62 g/ha, Postemergence): 1
Giant foxtail plant response rating ([6]; Rate 62 g/ha, Preemergence): 0
Plant response rating, Giant foxtail ([6]; Rate 125 g/ha, Postemergence): 1
Giant foxtail plant response rating ([6]; Rate 125 g/ha, Preemergence): 3
Plant response rating, Giant foxtail ([6]; Rate 250 g/ha, Postemergence): 1
Plant response rating, Giant foxtail ([6]; Rate 250 g/ha, Preemergence): 7
Plant response rating, Giant foxtail ([6]; Rate 500 g/ha, Postemergence): 3
Plant response rating, Giant foxtail ([6]; Rate 500 g/ha, Preemergence): 8
Morningglory plant response rating ([7]; Rate 62 g/ha, Preemergence): 0
Plant response rating, Morningglory ([7]; Rate 125 g/ha, Postemergence): 1
Morningglory plant response rating ([7]; Rate 125 g/ha, Preemergence): 0
Plant response rating, Morningglory ([7]; Rate 250 g/ha, Postemergence): 1
Plant response rating, Morningglory ([7]; Rate 250 g/ha, Preemergence): 0
Plant response rating, Morningglory ([7]; Rate 500 g/ha, Postemergence): 1
Plant response rating, Morningglory ([7]; Rate 500 g/ha, Preemergence): 1
Plant response rating, Redroot pigweed ([8]; Rate 62 g/ha, Postemergence): 5
Redroot pigweed plant response rating ([8]; Rate 62 g/ha, Preemergence): 0
Plant response rating, Redroot pigweed ([8]; Rate 125 g/ha, Postemergence): 6
Redroot pigweed plant response rating ([8]; Rate 125 g/ha, Preemergence): 0
Plant response rating, Redroot pigweed ([8]; Rate 250 g/ha, Postemergence): 8
Plant response rating, Redroot pigweed ([8]; Rate 250 g/ha, Preemergence): 8
Plant response rating, Redroot pigweed ([8]; Rate 500 g/ha, Postemergence): 9
Plant response rating, Redroot pigweed ([8]; Rate 500 g/ha, Preemergence): 8
Plant response rating, Rape (rape (Brassica napus); Rate 62 g/ha, Postemergence): 1
Rape plant response rating (rape (Brassica napus); Rate 62 g/ha, Preemergence): 0
Plant response rating, Rape (rape (Brassica napus); Rate 125 g/ha, Postemergence): 2
Rape plant response rating (rape (Brassica napus); Rate 125 g/ha, Preemergence): 0
Plant response rating, Rape (rape (Brassica napus); Rate 250 g/ha, Postemergence): 2
Plant response rating, Rape (rape (Brassica napus); Rate 250 g/ha, Preemergence): 0
Plant response rating, Rape (rape (Brassica napus); Rate 500 g/ha, Postemergence): 5
Plant response rating, Rape (rape (Brassica napus); Rate 500 g/ha, Preemergence): 1
Plant response rating, Soybean (soybean (Glycine max); Rate 62 g/ha, Postemergence): 3
Soybean plant response rating (soybean (Glycine max); Rate 62 g/ha, Preemergence): 0
Plant response rating, Soybean (soybean (Glycine max); Rate 125 g/ha, Postemergence): 3
Soybean plant response rating (soybean (Glycine max); Rate 125 g/ha, Preemergence): 0
Plant response rating, Soybean (soybean (Glycine max); Rate 250 g/ha, Postemergence): 4
Plant response rating, Soybean (soybean (Glycine max); Rate 250 g/ha, Preemergence): 0
Plant response rating, Soybean (soybean (Glycine max); Rate 500 g/ha, Postemergence): 4
Plant response rating, Soybean (soybean (Glycine max); Rate 500 g/ha, Preemergence): 0
Plant response rating, Sugarbeets ([9]; Rate 62 g/ha, Postemergence): 8
Sugarbeets plant response rating ([9]; Rate 62 g/ha, Preemergence): 0
Plant response rating, Sugarbeets ([9]; Rate 125 g/ha, Postemergence): 8
Sugarbeets plant response rating ([9]; Rate 125 g/ha, Preemergence): 1
Plant response rating, Sugarbeets ([9]; Rate 250 g/ha, Postemergence): 9
Plant response rating, Sugarbeets ([9]; Rate 250 g/ha, Preemergence): 7
Plant response rating, Sugarbeets ([9]; Rate 500 g/ha, Postemergence): 9
Plant response rating, Sugarbeets ([9]; Rate 500 g/ha, Preemergence): 9
Plant response rating, Velvetleaf ([10]; Rate 62 g/ha, Postemergence): 1
Velvetleaf plant response rating ([10]; Rate 62 g/ha, Preemergence): 0
Plant response rating, Velvetleaf ([10]; Rate 125 g/ha, Postemergence): 2
Velvetleaf plant response rating ([10]; Rate 125 g/ha, Preemergence): 0
Plant response rating, Velvetleaf ([10]; Rate 250 g/ha, Postemergence): 2
Plant response rating, Velvetleaf ([10]; Rate 250 g/ha, Preemergence): 1
Plant response rating, Velvetleaf ([10]; Rate 500 g/ha, Postemergence): 2
Plant response rating, Velvetleaf ([10]; Rate 500 g/ha, Preemergence): 1
Plant response rating, Wheat ([11]; Rate 62 g/ha, Postemergence): 0
Wheat plant response rating ([11]; Rate 62 g/ha, Preemergence): 0
Plant response rating, Wheat ([11]; Rate 125 g/ha, Postemergence): 0
Wheat plant response rating ([11]; Rate 125 g/ha, Preemergence): 0
Plant response rating, Wheat ([11]; Rate 250 g/ha, Postemergence): 0
Plant response rating, Wheat ([11]; Rate 250 g/ha, Preemergence): 0
Plant response rating, Wheat ([11]; Rate 500 g/ha, Postemergence): 1
Plant response rating, Wheat ([11]; Rate 500 g/ha, Preemergence): 0
